Data reported in patent US11479551B2, “MTA-cooperative PRMT5 inhibitors” (Mirati Therapeutics, Inc., priority 2019, dated 2022).

Legend:
[1] = test system: PRMT5-dependent Symmetric Di-methyl Arginine signal in HCT116 homozygous MTAP knockout cells; experiment: SYM11 In-Cell Western, HCT116 MTAP knockout; format: cell-based; conditions: Homo sapiens, HCT-116, 96 h, HCT116 homozygous MTAP knockout cells, 4 days of treatment, SYM11/DRAQ5 ratio; read-out: In-cell-Western (SYM11) HCT116 MTAP_KO IC50
Description: (§1) 1. HCT116 MTAP Knockout Model
(§2) HCT116 cells were genetically engineered to knock out the function of both MTAP alleles using a CRISPR/Cas9 system and an sgRNA targeting the MTAP gene. Following Cas9/MTAP sgRNA transduction, clones were screened to confirm that each allele of the MTAP gene had been inactivated (i.e., homozygous MTAP knock out) creating an MTAP-deficient cell.
(§3) Control samples were analyzed in parallel.
Briefly, on Day 0, 2,000 HCT116 parental or HCT116 homozygous MTAP knockout cells were seeded in 96 well plates in McCoy's 5A supplemented with 10% fetal bovine serum and pen/strep and the cells were incubated overnight at 37° C. plus 5% CO2. The following day, cells were treated with DMSO vehicle control or a dose response of PRMT5 inhibitors, and incubated at 37° C. plus 5% CO^2 for four days.
After 4 days of treatment, the cells were fixed by adding 50 μl of 4% paraformaldehyde solution to each well and the cells were incubated for 20 min at room temperature. The paraformaldehyde solution was removed, 150 μl of ice-cold methanol was added and the plate was placed −20° C. for 10 minutes. The methanol was removed, 150 μl of Odyssey Blocking buffer+0.05% Tween20 was added and the plate was incubated at room temperature with shaking for one hour.
The primary SYM11 antibody solution was removed by aspiration and the wells were washed three consecutive times with phosphate buffered saline containing 0.1% Tween-20 (PBST).
The secondary antibody solution was removed by aspiration and the wells were washed three consecutive times with PB ST.
The SYM11 signal and the DRAQ5 signal were quantified using a Li-Cor Odyssey machine reading at […], respectively. The SYM11/DRAQ5 ratio was used to calculate the inhibition of Symmetric Dimethyl Arginine as percent of DMSO control.

[2] = test system: HCT116 homozygous MTAP knockout cells; experiment: Proliferation assay (CellTiter-Glo, 10 days of treatment), HCT116 MTAP knockout; format: cell-based; conditions: Homo sapiens, HCT-116, 240 h, read-out: Proliferation HCT116MTAP_KO IC50
Description: as §1, §2, §3
Briefly, on Day 0, 250 HCT116 parental or HCT116 homozygous MTAP knockout cell were seeded in 96 well plates in McCoy's 5A supplemented with 10% fetal bovine serum and pen/strep and the cells were incubated overnight at 37° C. plus 5% CO2.
The following day, cells were treated with DMSO vehicle control or a dose response of PRMT5 inhibitors and incubated at 37 C plus 5% CO2 for five days. On Day 6, the cells were trypsinized and split 1:10 into new 96-well plates with fresh medium containing the same concentration of PRMT5 inhibitor and incubated for an additional 5 days at 37° C. plus 5% CO^2.
On Day 11, the viability of the cells was measured using a CTG assay kit (CellTiter-Glo; Promega cat.no G7573) in accordance with the manufacturer's instructions. The IC50 values for each compound after 10 days of treatment were calculated using GraphPad PRISM software.

SMILES	IC50 [1] [µM]	IC50 [2] [µM]
Cn1ncc(-c2ccc3c(=O)[nH]nc(CN)c3c2)c1-c1cnn(Cc2ccccc2)c1C#N [Example 4-211, 4-(4-(aminomethyl)-1-oxo-1,2-dihydrophthalazin-6-yl)-1′-benzyl-2-methyl-1′H,2H-[3,4′-bipyrazole]-5′-carbonitrile]	0.197	2.15
Cn1ncc(-c2ccc3c(=O)[nH]nc(CN)c3c2)c1-c1cn(Cc2ccccc2)nc1C#N [Example 4-212, 4-(4-(aminomethyl)-1-oxo-1,2-dihydrophthalazin-6-yl)-1′-benzyl-2-methyl-1′H,2H-[3,4′-bipyrazole]-3′-carbonitrile]	> 10	> 10
Cn1ncc(-c2ccc3c(=O)[nH]nc(CN)c3c2)c1-c1cn(-c2ccccc2)nc1Cl [Example 4-213, 4-(aminomethyl)-6-(3′-chloro-2-methyl-1′-phenyl-1′H,2H-[3,4′-bipyrazol]-4-yl)phthalazin-1(2H)-one]	0.088	1.68
Cn1ncc(-c2ccc3c(=O)[nH]nc(CN)c3c2)c1-c1cn(-c2ccccc2)nc1C#N [Example 4-214, 4-(4-(aminomethyl)-1-oxo-1,2-dihydrophthalazin-6-yl)-2-methyl-11-phenyl-1′H,2H-[3,4′-bipyrazole]-3′-carbonitrile]	> 10	4.4
Cn1ncc(-c2ccc3c(=O)[nH]nc(CN)c3c2)c1-c1ccc2cc(F)ccc2c1C#N [Example 4-216, 2-(4-(4-(aminomethyl)-1-oxo-1,2-dihydrophthalazin-6-yl)-1-methyl-1H-pyrazol-5-yl)-6-fluoro-1-naphthonitrile]	0.083	0.134
Cn1ncc(-c2ccc3c(=O)[nH]nc(CN)c3c2)c1-c1cc2ccccc2c(Cl)c1C#N [Example 4-218, 3-(4-(4-(aminomethyl)-1-oxo-1,2-dihydrophthalazin-6-yl)-1-methyl-1H-pyrazol-5-yl)-1-chloro-2-naphthonitrile]	0.14	0.134
Cn1nc(Cl)c(-c2c(-c3ccc4c(=O)[nH]nc(CN)c4c3)cnn2C)c1C#N [Example 4-219, 4-(4-(aminomethyl)-1-oxo-1,2-dihydrophthalazin-6-yl)-3′-chloro-1′,2-dimethyl-1′H,2H-[3,4′-bipyrazole]-5′-carbonitrile]	> 1	3.61
Cn1ncc(-c2ccc3c(=O)[nH]nc(CN)c3c2)c1-c1ccc2c(c1C#N)OCCC2 [Example 4-226, 7-(4-(4-(aminomethyl)-1-oxo-1,2-dihydrophthalazin-6-yl)-1-methyl-1H-pyrazol-5-yl)chromane-8-carbonitrile]	0.01	0.191
Cn1ncc(-c2ccc3c(=O)[nH]nc(CN)c3c2)c1-c1cc2ccccn2c1C#N [Example 4-227, 2-(4-(4-(aminomethyl)-1-oxo-1,2-dihydrophthalazin-6-yl)-1-methyl-1H-pyrazol-5-yl)indolizine-3-carbonitrile]	> 1	2.37
N#Cc1c(-c2sncc2-c2ccc3c(=O)[nH]nc(CN)c3c2)ccc2ccccc12 [Example 4-228, 2-(4-(4-(aminomethyl)-1-oxo-1,2-dihydrophthalazin-6-yl)isothiazol-5-yl)-1-naphthonitrile]	> 1	> 10
Cn1ncc(-c2ccc3c(=O)[nH]nc(CN)c3c2)c1-c1cn(Cc2ccccc2C#N)nc1Cl [Example 4-232, 2-((4-(4-(aminomethyl)-1-oxo-1,2-dihydrophthalazin-6-yl)-3′-chloro-2-methyl-1′H,2H-[3,4′-bipyrazol]-1′-yl)methyl)benzonitrile]	0.148	4.77
Cn1ncc(-c2ccc3c(=O)[nH]nc(CN)c3c2)c1-c1cccc2cncn12 [Example 4-233, 4-(aminomethyl)-6-(5-(imidazo[1,5-a]pyridin-5-yl)-1-methyl-1H-pyrazol-4-yl)phthalazin-1(2H)-one]	> 1	4.73
Cn1ncc(-c2ccc3c(=O)[nH]nc(CN)c3c2)c1-c1ccc2cccc(F)c2c1C#N [Example 4-234, 2-(4-(4-(aminomethyl)-1-oxo-1,2-dihydrophthalazin-6-yl)-1-methyl-1H-pyrazol-5-yl)-8-fluoro-1-naphthonitrile]	0.129	0.206
N#CCc1ccccc1Oc1cncc(-c2ccc3c(=O)[nH]nc(CN)c3c2)c1 [Example 4-235, 2-(2-((5-(4-(aminomethyl)-1-oxo-1,2-dihydrophthalazin-6-yl)pyridin-3-yl)oxy)phenyl)acetonitrile]	> 1	> 10
Cn1ncc(-c2ccc3c(=O)[nH]nc(CN)c3c2)c1-c1cnn(Cc2cccn(C)c2=O)c1Cl [Example 4-236, 4-(aminomethyl)-6-(5′-chloro-2-methyl-1′-((1-methyl-2-oxo-1,2-dihydropyridin-3-yl)methyl)-1′H,2H-[3,4′-bipyrazol]-4-yl)phthalazin-1(2H)-one]	> 1	> 1
Cn1ncc(-c2ccc3c(=O)[nH]nc(CN)c3c2)c1-c1ccc2ncsc2c1C#N [Example 4-237, 6-(4-(4-(aminomethyl)-1-oxo-1,2-dihydrophthalazin-6-yl)-1-methyl-1H-pyrazol-5-yl)benzo[d]thiazole-7-carbonitrile]	0.136	1.04
Cn1ncc(-c2ccc3c(=O)[nH]nc(CN)c3c2)c1-c1cccn2cncc12 [Example 4-239, 4-(aminomethyl)-6-(5-(imidazo[1,5-a]pyridin-8-yl)-1-methyl-1H-pyrazol-4-yl)phthalazin-1(2H)-one]	> 1	> 10
Cn1ncc(-c2ccc3c(=O)[nH]nc(CN)c3c2)c1-c1cn2ccccc2c1C#N [Example 4-240, 2-(4-(4-(aminomethyl)-1-oxo-1,2-dihydrophthalazin-6-yl)-1-methyl-1H-pyrazol-5-yl)indolizine-1-cathonitrile]	> 1	3.56
Cn1ncc(-c2ccc3c(=O)[nH]nc(CN)c3c2)c1-c1cc(Cl)cc(OC(F)F)c1C#N [Example 4-243, 2-(4-(4-(aminomethyl)-1-oxo-1,2-dihydrophthalazin-6-yl)-1-methyl-1H-pyrazol-5-yl)-4-chloro-6-(difluoromethoxy)benzonitrile]	0.051	0.285
Cn1ncc(-c2ccc3c(=O)[nH]nc(CN)c3c2)c1-c1sc2ncccc2c1C#N [Example 4-244, 2-(4-(4-(aminomethyl)-1-oxo-1,2-dihydrophthalazin-6-yl)-1-methyl-1H-pyrazol-5-yl)thieno[2,3-b]pyridine-3-carbonitrile]	0.042	0.327
Cc1c(F)c(-c2c(-c3ccc4c(=O)[nH]nc(CN)c4c3)cnn2C)c(C#N)c2ccccc12 [Example 4-245, 2-(4-(4-(aminomethyl)-1-oxo-1,2-dihydrophthalazin-6-yl)-1-methyl-1H-pyrazol-5-yl)-3-fluoro-4-methyl-1-naphthonitrile]	0.007	0.008
Cn1ncc(-c2ccc3c(=O)[nH]nc(CN)c3c2)c1-c1c(C(F)F)cc2ccccc2c1C#N [Example 4-246, 2-(4-(4-(aminomethyl)-1-oxo-1,2-dihydrophthalazin-6-yl)-1-methyl-1H-pyrazol-5-yl)-3-(difluoromethyl)-1-naphthonitrile]	0.05	0.072
